Experimental data reported in US12582641B2, “Sulfur-containing compound based on glutarimide skeleton and application thereof” (SHANGHAITECH UNIVERSITY, priority 2019, dated 2026).

System: MM.1S cells
Assay: Proliferation inhibition (IC50) in MM.1S cells, cell viability assay
Conditions: Homo sapiens, MM1.S, 72 h, read-out: IC50 (nM), proliferation inhibitory activity of MM.1S cells (half inhibitory concentration)

**Q.** With `O=C1CCC(N2Cc3c(SCCc4ccc(CCNC56CC7CC(CC(C7)C5)C6)cc4)cccc3C2=O)C(=O)N1` (stereo not drawn) [SIAIS1224121, 3-(4-((4-(2-((adamantan-1-yl)amino)ethyl)phenethyl)thio)-1-oxoisoindolin-2-yl)piperidine-2,6-dione] as the molecule, how does the IC50 read?
**A.** Its IC50 is 0.48 ± 0.05 nM.

**Q.** With `O=C1CCC(N2Cc3c(SCCCCCCCN4CCSCC4)cccc3C2=O)C(=O)N1` (stereo not drawn) [SIAIS1224125, 3-(1-oxo-4-((7-thiomorpholinoheptyl)thio)isoindolin-2-yl)piperidine-2,6-dione] as the molecule, how does the IC50 read?
**A.** The IC50 was 0.046 nM.

**Q.** `O=C1CCC(N2Cc3c(SCCc4ccc(CNC56CC7CC(CC(C7)C5)C6)cc4)cccc3C2=O)C(=O)N1` (stereo not drawn) [SIAIS1224149, 3-(4-((4-(((adamantan-1-yl)amino)methyl)phenethyl)thio)-1-oxoisoindolin-2-yl)piperidine-2,6-dione] was tested. Which IC50 did it give?
**A.** The IC50 was 0.44 ± 0.1 nM.

**Q.** With `O=C1CCC(N2C(=O)c3cccc(SCCc4ccc(CNC56CC7CC(CC(C7)C5)C6)cc4)c3C2=O)C(=O)N1` (stereo not drawn) [SIAIS1224151, 4-((4-(((adamantan-1-yl)amino)methyl)phenethyl)thio)-2-(2,6-dioxopiperidin-3-yl)isoindoline-1,3-dione] as the molecule, how does the IC50 read?
**A.** The IC50 was 3.41 nM.

**Q.** Which IC50 does the source give for `O=C1CCC(N2Cc3c(SCc4ccc(CCN5CCCCC5)cc4)cccc3C2=O)C(=O)N1` (stereo not drawn) [SIAIS1224153, 3-(1-oxo-4-((4-(2-(piperidin-1-yl)ethyl)benzyl)thio)isoindolin-2-yl)piperidine-2,6-dione] here?
**A.** The IC50 was 0.024 ± 0.002 nM.

**Q.** For `O=C1CCC(N2Cc3c(SCc4ccc(/C=C/Br)cc4)cccc3C2=O)C(=O)N1` (stereo not drawn) [SIAIS1224154, (E)-3-(4-((4-(2-bromovinyl)benzyl)thio)-1-oxoisoindolin-2-yl)piperidine-2,6-dione], which IC50 is on record?
**A.** The IC50 was 0.809 nM.

**Q.** How did the IC50 turn out when `O=C1CCC(N2Cc3c(SCc4ccc(CCNC5CCCCC5)cc4)cccc3C2=O)C(=O)N1` (stereo not drawn) [SIAIS1224155, 3-(4-((4-(2-(cyclohexylamino)ethyl)benzyl)thio)-1-oxoisoindolin-2-yl)piperidine-2,6-dione] was run?
**A.** Its IC50 is 0.021 ± 0.004 nM.

**Q.** `O=C1CCC(N2Cc3c(SCCc4ccc(CN5CCCCC5)cc4)cccc3C2=O)C(=O)N1` (stereo not drawn) [SIAIS1224161, 3-(1-oxo-4-((4-(piperidin-1-ylmethyl)phenethyl)thio)isoindolin-2-yl)piperidine-2,6-dione] was tested. Which IC50 did it give?
**A.** Its IC50 is 3.62 nM.

**Q.** For `O=C1CCC(N2C(=O)c3cccc(SCCc4ccc(CN5CCCCC5)cc4)c3C2=O)C(=O)N1` (stereo not drawn) [SIAIS1224163, 2-(2,6-dioxopiperidin-3-yl)-4-((4-(piperidin-1-ylmethyl)phenethyl)thio)isoindoline-1,3-dione], which IC50 is on record?
**A.** Its IC50 is 7.41 nM.

**Q.** How did the IC50 turn out when `O=C1CCC(N2Cc3c(SCCc4ccc(CNC5CCCCC5)cc4)cccc3C2=O)C(=O)N1` (stereo not drawn) [SIAIS1227007, 3-(4-((4-((cyclohexylamino)methyl)phenethyl)thio)-1-oxoisoindolin-2-yl)piperidine-2,6-dione] was run?
**A.** The IC50 was 0.67 ± 0.27 nM.

**Q.** How did the IC50 turn out when `O=C1CCC(N2C(=O)c3cccc(SCCc4ccc(CNC5CCCCC5)cc4)c3C2=O)C(=O)N1` (stereo not drawn) [SIAIS1227019, 4-((4-((cyclohexylamino)methyl)phenethyl)thio)-2-(2,6-dioxopiperidin-3-yl)isoindoline-1,3-dione] was run?
**A.** The IC50 was 34.3 nM.

**Q.** For `O=C1CCC(N2Cc3c(SCCCc4ccc(CN5CCCCC5)cc4)cccc3C2=O)C(=O)N1` (stereo not drawn) [SIAIS1227035, 3-(1-oxo-4-((3-(4-(piperidin-1-ylmethyl)phenyl)propyl)thio)isoindolin-2-yl)piperidine-2,6-dione], which IC50 is on record?
**A.** Its IC50 is 0.14 ± 0.04 nM.

**Q.** With `O=C1CCC(N2Cc3c(SCCCc4ccc(CNC56CC7CC(CC(C7)C5)C6)cc4)cccc3C2=O)C(=O)N1` (stereo not drawn) [SIAIS1227037, 3-(4-((3-(4-(((adamantan-1-yl)amino)methyl)phenyl)propyl)thio)-1-oxoisoindolin-2-yl)piperidine-2,6-dione] as the molecule, how does the IC50 read?
**A.** Its IC50 is 0.04 ± 0.02 nM.

**Q.** Which IC50 does the source give for `O=C1CCC(N2C(=O)c3cccc(SCCCc4ccc(CN5CCCCC5)cc4)c3C2=O)C(=O)N1` (stereo not drawn) [SIAIS1227039, 2-(2,6-dioxopiperidin-3-yl)-4-((3-(4-(piperidin-1-ylmethyl)phenyl)propyl)thio)isoindoline-1,3-dione] here?
**A.** Its IC50 is 2.49 nM.

**Q.** How did the IC50 turn out when `O=C1CCC(N2C(=O)c3cccc(SCCCc4ccc(CNC56CC7CC(CC(C7)C5)C6)cc4)c3C2=O)C(=O)N1` (stereo not drawn) [SIAIS1227041, 4-((3-(4-(((adamantan-1-yl)amino)methyl)phenyl)propyl)thio)-2-(2,6-dioxopiperidin-3-yl)isoindoline-1,3-dione] was run?
**A.** Its IC50 is 0.095 nM.

**Q.** Which IC50 does the source give for `O=C1CCC(N2Cc3c(SCc4ccc(CCCN5CCCCC5)cc4)cccc3C2=O)C(=O)N1` (stereo not drawn) [SIAIS1227043, 3-(1-oxo-4-((4-(3-(piperidin-1-yl)propyl)benzyl)thio)isoindolin-2-yl)piperidine-2,6-dione] here?
**A.** The IC50 was 0.024 ± 0.006 nM.

**Q.** `O=C1CCC(N2Cc3c(SCc4ccc(CCCNC5CCCCC5)cc4)cccc3C2=O)C(=O)N1` (stereo not drawn) [SIAIS1227045, 3-(4-((4-(3-(cyclohexylamino)propyl)benzyl)thio)-1-oxoisoindolin-2-yl)piperidine-2,6-dione] was tested. Which IC50 did it give?
**A.** The IC50 was 0.06 ± 0.01 nM.

**Q.** How did the IC50 turn out when `O=C1CCC(N2Cc3c(SCc4ccc(CCCNC56CC7CC(CC(C7)C5)C6)cc4)cccc3C2=O)C(=O)N1` (stereo not drawn) [SIAIS1227047, 3-(4-((4-(3-((adamantan-1-yl)amino)propyl)benzyl)thio)-1-oxoisoindolin-2-yl)piperidine-2,6-dione] was run?
**A.** Its IC50 is 0.028 ± 0.003 nM.

**Q.** Which IC50 does the source give for `O=C1CCC(N2Cc3c(SCc4ccc(CCN5CCOCC5)cc4)cccc3C2=O)C(=O)N1` (stereo not drawn) [SIAIS1227049, 3-(4-((4-(2-morpholinoethyl)benzyl)thio)-1-oxoisoindolin-2-yl)piperidine-2,6-dione] here?
**A.** Its IC50 is 0.1 ± 0.05 nM.

**Q.** For `O=C1CCC(N2Cc3c(SCc4ccc(CCN5CCSCC5)cc4)cccc3C2=O)C(=O)N1` (stereo not drawn) [SIAIS1227051, 3-(1-oxo-4-((4-(2-thiomorpholinoethyl)benzyl)thio)isoindolin-2-yl)piperidine-2,6-dione], which IC50 is on record?
**A.** Its IC50 is 0.004 ± 0.002 nM.

**Q.** How did the IC50 turn out when `O=C1CCC(N2Cc3c(SCc4ccc(CCCN5CCOCC5)cc4)cccc3C2=O)C(=O)N1` (stereo not drawn) [SIAIS1227053, 3-(4-((4-(3-morpholinopropyl)benzyl)thio)-1-oxoisoindolin-2-yl)piperidine-2,6-dione] was run?
**A.** The IC50 was 0.079 nM.

**Q.** `CCN(CC)Cc1ccc(CSc2cccc3c2CN(C2CCC(=O)NC2=O)C3=O)cc1` (stereo not drawn) [SIAIS1227055, 3-(4-((4-((diethylamino)methyl)benzyl)thio)-1-oxoisoindolin-2-yl)piperidine-2,6-dione] was tested. Which IC50 did it give?
**A.** The IC50 was 0.285 nM.

**Q.** With `CC(C)N(Cc1ccc(CSc2cccc3c2CN(C2CCC(=O)NC2=O)C3=O)cc1)C(C)C` (stereo not drawn) [SIAIS1227057, 3-(4-((4-((diisopropylamino)methyl)benzyl)thio)-1-oxoisoindolin-2-yl)piperidine-2,6-dione] as the molecule, how does the IC50 read?
**A.** Its IC50 is 0.252 nM.

**Q.** How did the IC50 turn out when `O=C1CCC(N2Cc3c(SCc4ccc(CN(C5CCCCC5)C5CCCCC5)cc4)cccc3C2=O)C(=O)N1` (stereo not drawn) [SIAIS1227059, 3-(4-((4-((dicyclohexylamino)methyl)benzyl)thio)-1-oxoisoindolin-2-yl)piperidine-2,6-dione] was run?
**A.** The IC50 was 0.022 nM.

**Q.** For `O=C1CCC(N2Cc3c(SCc4ccc(CNC56CC7CC(CC(O)(C7)C5)C6)cc4)cccc3C2=O)C(=O)N1` (stereo not drawn) [SIAIS1227061, 3-(4-((4-(((3-hydroxyadamantan-1-yl)amino)methyl)benzyl)thio)-1-oxoisoindolin-2-yl)piperidine-2,6-dione], which IC50 is on record?
**A.** The IC50 was 0.721 nM.

**Q.** `O=C1CCC(N2Cc3c(SCCCc4ccc(CNC5CCCCC5)cc4)cccc3C2=O)C(=O)N1` (stereo not drawn) [SIAIS1227067, 3-(4-((3-(4-((cyclohexylamino)methyl)phenyl)propyl)thio)-1-oxoisoindolin-2-yl)piperidine-2,6-dione] was tested. Which IC50 did it give?
**A.** Its IC50 is 0.11 ± 0.02 nM.

**Q.** `O=C1CCC(N2C(=O)c3cccc(SCCCc4ccc(CNC5CCCCC5)cc4)c3C2=O)C(=O)N1` (stereo not drawn) [SIAIS1227069, 4-((3-(4-((cyclohexylamino)methyl)phenyl)propyl)thio)-2-(2,6-dioxopiperidin-3-yl)isoindoline-1,3-dione] was tested. Which IC50 did it give?
**A.** The IC50 was 1.12 nM.

**Q.** Which IC50 does the source give for `O=C1CCC(N2Cc3c(SCCCc4ccc(CN5CCOCC5)cc4)cccc3C2=O)C(=O)N1` (stereo not drawn) [SIAIS1227075, 3-(4-((3-(4-(morpholinomethyl)phenyl)propyl)thio)-1-oxoisoindolin-2-yl)piperidine-2,6-dione] here?
**A.** Its IC50 is 0.499 nM.

**Q.** `O=C1CCC(N2C(=O)c3cccc(SCc4ccc(CCCN5CCCCC5)cc4)c3C2=O)C(=O)N1` (stereo not drawn) [SIAIS1227085, 2-(2,6-dioxopiperidin-3-yl)-4-((4-(3-(piperidin-1-yl)propyl)benzyl)thio)isoindoline-1,3-dione] was tested. Which IC50 did it give?
**A.** The IC50 was 0.37 nM.

**Q.** For `O=C1CCC(N2C(=O)c3cccc(SCc4ccc(CCCNC5CCCCC5)cc4)c3C2=O)C(=O)N1` (stereo not drawn) [SIAIS1227087, 4-((4-(3-(cyclohexylamino)propyl)benzyl)thio)-2-(2,6-dioxopiperidin-3-yl)isoindoline-1,3-dione], which IC50 is on record?
**A.** Its IC50 is 0.283 nM.

**Q.** How did the IC50 turn out when `O=C1CCC(N2C(=O)c3cccc(SCc4ccc(CCCN5CCOCC5)cc4)c3C2=O)C(=O)N1` (stereo not drawn) [SIAIS1227091, 2-(2,6-dioxopiperidin-3-yl)-4-((4-(3-morpholinopropyl)benzyl)thio) isoindoline-1,3-dione] was run?
**A.** Its IC50 is 2 nM.

**Q.** Which IC50 does the source give for `CCN(CC)CCc1ccc(CSc2cccc3c2CN(C2CCC(=O)NC2=O)C3=O)cc1` (stereo not drawn) [SIAIS1227097, 3-(4-((4-(2-(diethylamino)ethyl)benzyl)thio)-1-oxoisoindolin-2-yl)piperidine-2,6-dione] here?
**A.** The IC50 was 0.163 nM.

**Q.** For `CN1CCN(CCc2ccc(CSc3cccc4c3CN(C3CCC(=O)NC3=O)C4=O)cc2)CC1` (stereo not drawn) [SIAIS1227099, 3-(4-((4-(2-(4-methylpiperazin-1-yl)ethyl)benzyl)thio)-1-oxoisoindolin-2-yl)piperidine-2,6-dione], which IC50 is on record?
**A.** Its IC50 is 0.311 nM.

**Q.** How did the IC50 turn out when `CC1(C)CCC(NCCc2ccc(CSc3cccc4c3CN(C3CCC(=O)NC3=O)C4=O)cc2)CC1` (stereo not drawn) [SIAIS1227103, 3-(4-((4-(2-((4,4-dimethylcyclohexyl)amino)ethyl)benzyl)thio)-1-oxoisoindolin-2-yl)piperidine-2,6-dione] was run?
**A.** Its IC50 is 0.02 nM.

**Q.** Which IC50 does the source give for `CC1(C)CCC(NCc2ccc(CSc3cccc4c3CN(C3CCC(=O)NC3=O)C4=O)cc2)CC1` (stereo not drawn) [SIAIS1227105, 3-(4-((4-(((4,4-dimethylcyclohexyl)amino)methyl)benzyl)thio)-1-oxoisoindolin-2-yl)piperidine-2,6-dione] here?
**A.** Its IC50 is 0.05 ± 0.01 nM.

**Q.** `CC(C)(C)NCc1ccc(CSc2cccc3c2CN(C2CCC(=O)NC2=O)C3=O)cc1` (stereo not drawn) [SIAIS1227107, 3-(4-((4-((tert-butylamino)methyl)benzyl)thio)-1-oxoisoindolin-2-yl)piperidine-2,6-dione] was tested. Which IC50 did it give?
**A.** The IC50 was 0.27 ± 0.07 nM.
